Common to all, as to type: cell-based
Assay [1] concerns the target T1, GPR139 (Homo sapiens, UniProt Q6DWJ6).
T1 sequence (Q6DWJ6 1-353): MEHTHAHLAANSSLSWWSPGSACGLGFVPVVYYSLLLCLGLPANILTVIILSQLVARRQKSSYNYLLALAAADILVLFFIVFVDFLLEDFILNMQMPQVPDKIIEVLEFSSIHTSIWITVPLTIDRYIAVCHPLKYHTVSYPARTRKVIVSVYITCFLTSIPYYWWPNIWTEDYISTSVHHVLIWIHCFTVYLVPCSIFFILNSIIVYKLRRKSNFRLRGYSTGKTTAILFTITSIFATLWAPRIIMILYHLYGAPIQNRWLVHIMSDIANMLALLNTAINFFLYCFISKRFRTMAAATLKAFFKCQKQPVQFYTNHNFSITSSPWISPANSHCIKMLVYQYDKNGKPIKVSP
Briefly: Ca2+ mobilization assay, antagonist mode (EC80 800 nM Lundbeck Cmp 1a after 20 min preincubation), GPR139-CHOk1. In a few lines:
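Antagonist mode: 800 nM (EC80) reference agonist Lundbeck Cmp 1a added following 20 min pre-incubation with 10 µM compound. GPR139-CHOk1 cells, Fluo-4 dye, probenecid-containing HEPES buffer pH 7.4; intracellular Ca2+ measured at 37 °C (ex 485, em 525 nm).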

The target of assay [2] is T1, GPR139. Briefly: Ca2+ mobilization assay, agonist mode, stable GPR139-CHOk1 cell line. Conditions: for EC50 / Emax: Supplementary Table 2, mean ± SEM; for EC50: read-out: pEC50 Ca2+ (converted); for Emax: normalized to Lundbeck Cmp 1a, read-out: Emax (%) Ca2+. In a few lines:
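Agonist activity of compounds is assessed in stably transfected CHO-K1 cells using the calcium dye Fluo-4 at 37 °C in HEPES-buffered HBSS (pH 7.4). Efficacy is expressed relative to the reference agonist Lundbeck Cmp 1a, set as 100%.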
(In general: Calcium flux is commonly read through the fluorescence of an indicator in the cells.)

The target in assay [3] is T2, human muscarinic acetylcholine M1 receptor (M1R) (Homo sapiens, UniProt P11229).
T2 sequence (P11229 1-460): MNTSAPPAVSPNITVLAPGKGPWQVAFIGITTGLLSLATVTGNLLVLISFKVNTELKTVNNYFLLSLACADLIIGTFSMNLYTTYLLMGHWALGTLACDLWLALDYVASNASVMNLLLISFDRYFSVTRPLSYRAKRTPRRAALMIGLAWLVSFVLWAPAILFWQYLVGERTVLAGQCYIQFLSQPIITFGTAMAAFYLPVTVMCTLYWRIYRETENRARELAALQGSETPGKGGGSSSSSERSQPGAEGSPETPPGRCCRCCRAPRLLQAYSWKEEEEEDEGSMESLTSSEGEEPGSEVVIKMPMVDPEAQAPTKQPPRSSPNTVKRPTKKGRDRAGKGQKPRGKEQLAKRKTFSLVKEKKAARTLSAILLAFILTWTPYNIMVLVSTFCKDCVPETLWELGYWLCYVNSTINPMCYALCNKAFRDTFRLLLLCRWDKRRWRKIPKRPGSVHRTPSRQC
Briefly: Ca2+ mobilization counter-screen in M1R-CHOk1 cells.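 Also: 10 µM test compound.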 The procedure, abridged: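 Counter-screen used CHO-K1 cells stably carrying human M1R, Fluo-4 AM-loaded (2 µM, 1 h, 37 °C). Calcium signal measured at 485/525 nm after compound addition.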

The mark [4] stands for this setting: individual replicates (Supplementary Figure 4).
[5] abbreviates: Agonist mode, individual replicates (Supplementary Figure 4).
Setting [6] is: log [Compound] M = -4.5, individual replicate columns.
The mark [7] stands for this setting: log [Compound] M = -5.0, individual replicate columns.
Setting [8] is: log [Compound] M = -5.5, individual replicate columns.
Setting [9] is: log [Compound] M = -6.0, individual replicate columns.
Setting [10] is: log [Compound] M = -6.5, individual replicate columns.
Setting [11] is: log [Compound] M = -7.0, individual replicate columns.
Setting [12] is: log [Compound] M = -7.5, individual replicate columns.
The mark [13] stands for this setting: log [Compound] M = -8.0, individual replicate columns.
The mark [14] stands for this setting: log [Compound] M = -8.5, individual replicate columns.
Setting [15] is: log [Compound] M = -9.0, individual replicate columns.
The mark [16] stands for this setting: individual replicates (Supplementary Figure 5).

Structures are written as SMILES. Several values for one entry are separate records, joined by “and”; a condition that tells them apart may be missing. Equal values may be shown once.

A word on the Emax: it is the maximal effect, on the per cent scale that the assay sets.

For the compound `CC(NC(=O)C1CCN(c2cccc(Cl)c2)C1=O)c1ccsc1` (stereo not shown) [Compound 12, CC(NC(=O)C1CCN(C1=O)C=2C=CC=C(Cl)C2)C=3C=CSC3], the “Ca2+ signal (% of Cmp 1a)” value at GPR139 [1] (individual replicates (Supplementary Figure 1)) is 56.3731 % of Cmp 1a and 71.421 % of Cmp 1a and 56.1991 % of Cmp 1a; on GPR139 [2] (0.1 µM, individual replicates (Supplementary Figure 3)), -2.8 % of Cmp 1a and 0.3 % of Cmp 1a; at GPR139 [2] (1 µM, individual replicates (Supplementary Figure 3)), -0.458 % of Cmp 1a and 0.235 % of Cmp 1a; on GPR139 [2] (10 µM, individual replicates (Supplementary Figure 3)) it was 12.7 % of Cmp 1a and 12.3 % of Cmp 1a; at GPR139 [2] (Agonist mode, individual replicates (Supplementary Figure 1)) it was 45 % of Cmp 1a and 20 % of Cmp 1a and 39 % of Cmp 1a. Moreover, the “Ca2+ signal (% of Carbachol)” value in assay [3] (individual replicates (Supplementary Figure 2)) is -6.54 % of Carbachol and -0.0404 % of Carbachol.

`COc1ccc(-c2nc(CC(=O)NC(C)c3ccccc3)no2)nc1` (stereo not shown) [Compound 1.35, COC1=CN=C(C2=NC(CC(NC(C3=CC=CC=C3)C)=O)=NO2)C=C1]: the “Ca2+ signal (% of Cmp 1a)” value was 28 % of Cmp 1a and 18 % of Cmp 1a and 35 % of Cmp 1a at GPR139 [1] (setting [4]); 54 % of Cmp 1a and 78 % of Cmp 1a and 29 % of Cmp 1a on GPR139 [2] (setting [5]); 94 % of Cmp 1a and 90 % of Cmp 1a and 98 % of Cmp 1a and 75 % of Cmp 1a at GPR139 [2] (setting [6]); 78 % of Cmp 1a and 80 % of Cmp 1a (2×) and 38 % of Cmp 1a at GPR139 [2] (setting [7]); 47 % of Cmp 1a and 55 % of Cmp 1a and 66 % of Cmp 1a and 27 % of Cmp 1a on GPR139 [2] (setting [8]); 20 % of Cmp 1a and 21 % of Cmp 1a and 51 % of Cmp 1a and 17 % of Cmp 1a on GPR139 [2] (setting [9]). Besides, the “Ca2+ signal (% of Cmp 1a)” value on GPR139 [2] (setting [10]) is -3 % of Cmp 1a and 8 % of Cmp 1a and 26 % of Cmp 1a and 20 % of Cmp 1a; at GPR139 [2] (setting [11]), 1.67 % of Cmp 1a and -1.67 % of Cmp 1a and 26 % of Cmp 1a and 31 % of Cmp 1a; at GPR139 [2] (setting [12]), 2.67 % of Cmp 1a and 5.33 % of Cmp 1a and 16 % of Cmp 1a and 34 % of Cmp 1a; at GPR139 [2] (setting [13]) it was -2 % of Cmp 1a and 11 % of Cmp 1a and 29 % of Cmp 1a and 25 % of Cmp 1a; at GPR139 [2] (setting [14]) it was -6 % of Cmp 1a and 3 % of Cmp 1a and 17 % of Cmp 1a and -0.333 % of Cmp 1a; on GPR139 [2] (setting [15]), 2 % of Cmp 1a and 4.67 % of Cmp 1a and 12 % of Cmp 1a and -2 % of Cmp 1a. In addition, the EC50 on GPR139 [2] was 5.01 µM. For the same compound, the Emax at GPR139 [2] stood at 101 ± 5%. Also, the “Ca2+ signal (% of Carbachol)” value in assay [3] (setting [16]) was 7 % of Carbachol and 14 % of Carbachol and 10 % of Carbachol.

Regarding `CC(C)c1ccc(-c2nc(CC(=O)NC(C)c3ccccc3)no2)s1` (stereo not shown) [Compound 1.41, CC(C)C1=CC=C(S1)C2=NC(CC(=O)NC(C)C=3C=CC=CC3)=NO2], the “Ca2+ signal (% of Cmp 1a)” value was 24 % of Cmp 1a and 11 % of Cmp 1a and -0.667 % of Cmp 1a at GPR139 [1] (setting [4]); 66 % of Cmp 1a and 76 % of Cmp 1a and 60 % of Cmp 1a at GPR139 [2] (setting [5]); 69 % of Cmp 1a and 62 % of Cmp 1a and 57 % of Cmp 1a on GPR139 [2] (setting [6]); 70 % of Cmp 1a and 71 % of Cmp 1a and 40 % of Cmp 1a at GPR139 [2] (setting [7]); 56 % of Cmp 1a and 47 % of Cmp 1a and 25 % of Cmp 1a on GPR139 [2] (setting [8]); 34 % of Cmp 1a and 27 % of Cmp 1a and 22 % of Cmp 1a on GPR139 [2] (setting [9]). The “Ca2+ signal (% of Cmp 1a)” value on GPR139 [2] (setting [10]) is 15 % of Cmp 1a and 0.333 % of Cmp 1a and 5.33 % of Cmp 1a; at GPR139 [2] (setting [11]) it was 13 % of Cmp 1a and -9 % of Cmp 1a and 4.33 % of Cmp 1a; at GPR139 [2] (setting [12]), -1.33 % of Cmp 1a and -6.33 % of Cmp 1a and 3 % of Cmp 1a; at GPR139 [2] (setting [13]), -4.33 % of Cmp 1a and 0 % of Cmp 1a (2×); at GPR139 [2] (setting [14]), 0 % of Cmp 1a and -2.67 % of Cmp 1a and 0.333 % of Cmp 1a; on GPR139 [2] (setting [15]), -1.67 % of Cmp 1a and -4.33 % of Cmp 1a and -2.33 % of Cmp 1a. The “change in potency with larger substituents on the thiophene ring” value at GPR139 [2] (Ca2+ mobilization) was “three-fold reduction to a complete loss of activity”. The EC50 at GPR139 [2] is 1.58 µM. Further, at GPR139 [2], the maximal effect (Emax) was found to be 67 ± 4%. In addition, in assay [3] (setting [16]), the “Ca2+ signal (% of Carbachol)” value is -18 % of Carbachol and 8 % of Carbachol and -8 % of Carbachol.

For the origin of these results see article PMC12775434, “Ultra-large virtual screening unveils potent agonists of the neuromodulatory orphan receptor GPR139” (Nature Communications, 2025).
